Assay results taken from BindingDB's records for doi:10.1016/j.ejmech.2021.113481 (Harvard Medical School, 2021).

Molecular target: Cyclin-H/Cyclin-dependent kinase 7 (Homo sapiens, UniProt P51946+P50613)
Assay: Inhibition of CDK7/Cyclin H (unknown origin)

Chain of Cyclin-H/Cyclin-dependent kinase 7 (P51946 whole entry): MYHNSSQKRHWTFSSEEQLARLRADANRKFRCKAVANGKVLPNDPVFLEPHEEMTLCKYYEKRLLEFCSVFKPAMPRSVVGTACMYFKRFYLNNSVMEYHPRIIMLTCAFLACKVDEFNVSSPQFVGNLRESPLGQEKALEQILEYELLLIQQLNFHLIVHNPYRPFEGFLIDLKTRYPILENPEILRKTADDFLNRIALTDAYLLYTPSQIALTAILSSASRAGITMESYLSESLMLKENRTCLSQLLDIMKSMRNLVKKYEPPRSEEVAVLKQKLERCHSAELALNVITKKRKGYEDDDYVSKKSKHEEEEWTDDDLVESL
Chain of Cyclin-H/Cyclin-dependent kinase 7 (P50613 whole entry): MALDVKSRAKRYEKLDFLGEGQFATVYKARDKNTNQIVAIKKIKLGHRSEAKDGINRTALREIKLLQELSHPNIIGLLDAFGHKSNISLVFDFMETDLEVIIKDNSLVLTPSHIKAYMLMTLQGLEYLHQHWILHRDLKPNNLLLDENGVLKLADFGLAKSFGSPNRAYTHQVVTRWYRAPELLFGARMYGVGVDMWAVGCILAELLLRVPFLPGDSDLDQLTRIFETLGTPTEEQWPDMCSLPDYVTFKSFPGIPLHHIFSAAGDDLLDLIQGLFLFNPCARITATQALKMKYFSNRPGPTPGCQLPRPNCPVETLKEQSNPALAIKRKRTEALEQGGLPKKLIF

| IC50 [µM] | SMILES |
| --- | --- |
| 0.269 | CN(C)C/C=C/C(=O)Nc1ccc(O[C@@H]2CCC[C@@H](Nc3ncc(Cl)c(-c4c[nH]c5ccccc45)n3)C2)c(F)c1 |
| 0.919 | C=CC(=O)Nc1ccc(C(=O)N2CCC[C@@H](Nc3ncc(Cl)c(-c4c[nH]c5ccccc45)n3)C2)nc1 |
| 0.074 | CN(C)C/C=C/C(=O)Nc1ccc(N2CCC[C@@H](Nc3ncc(Cl)c(-c4c[nH]c5ccccc45)n3)C2)nc1 |
| 0.402 | CN(C)C/C=C/C(=O)Nc1ccc(C(=O)N2CCC[C@@H](Nc3ncc(Cl)c(-c4c[nH]c5ccccc45)n3)C2)nc1 |
